Measured values: PubChem BioAssay AID248 (DTP/NCI, 2004)
Where “and” joins values, the source holds several entries; their conditions need not be identical. Equal values may be shown once. Inconclusive results and toxic doses are left out. No stated cut-off is given here; in the data, active means T/C of 150% or more; inactive means T/C below 125%.

Test system: L1210 leukemia ip in BDF1 mice, survival T/C
Assay: NCI In Vivo Anticancer Drug Screen. Data for tumor model L1210 Leukemia (intraperitoneal) in B6D2F1 (BDF1) mice
Conditions: endpoint: mean survival time, higher = longer survival
Summary of the method: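 Mice bearing the transplanted tumor received compound or vehicle. Survival of the treated group was divided by that of the vehicle-treated control group to give the ratio.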

[1] = dose: 100.0 mg/kg/injection, schedule: Q04DX003 (ip), vehicle: Klucel (hydroxypropylcellulose) (HPC)
[2] = dose: 200.0 mg/kg/injection, schedule: Q04DX003 (ip), vehicle: Klucel (hydroxypropylcellulose) (HPC)
[3] = dose: 400.0 mg/kg/injection, schedule: Q04DX003 (ip), vehicle: Klucel (hydroxypropylcellulose) (HPC)
[4] = dose: 100.0 mg/kg/injection, schedule: Q01DX009 (ip), vehicle: Klucel (hydroxypropylcellulose) (HPC)
[5] = dose: 200.0 mg/kg/injection, schedule: Q01DX009 (ip), vehicle: Klucel (hydroxypropylcellulose) (HPC)
[6] = dose: 400.0 mg/kg/injection, schedule: Q01DX009 (ip), vehicle: Klucel (hydroxypropylcellulose) (HPC)
[7] = dose: 75.0 mg/kg/injection, schedule: Q01DX001 (ip), vehicle: saline
[8] = dose: 150.0 mg/kg/injection, schedule: Q01DX001 (ip), vehicle: saline
[9] = dose: 100.0 mg/kg/injection, schedule: Q01DX009 (ip), vehicle: saline
[10] = dose: 100.0 mg/kg/injection, schedule: Q04DX003 (ip), vehicle: saline
[11] = dose: 200.0 mg/kg/injection, schedule: Q04DX003 (ip), vehicle: saline
[12] = dose: 50.0 mg/kg/injection, schedule: Q01DX009 (ip), vehicle: saline
[13] = dose: 25.0 mg/kg/injection, schedule: Q04DX003 (ip), vehicle: saline
[14] = dose: 50.0 mg/kg/injection, schedule: Q04DX003 (ip), vehicle: saline

Measured: T/C

NC(C(=O)O)c1cc(Cl)co1 (stereo not given)
inactive: [1] 105 % of control | [2] 105 % of control | [3] 101 % of control

[Cu+2].[NH-]C(CS)C(=O)O.[NH-]C(CS)C(=O)O (stereo not given)
inactive: dose: 3.13 mg/kg/injection, schedule: Q04DX002 (ip), vehicle: saline with Tween-80 97 % of control | dose: 6.25 mg/kg/injection, schedule: Q04DX002 (ip), vehicle: saline with Tween-80 93 % of control and 90 % of control | dose: 25.0 mg/kg/injection, schedule: Q04DX002 (ip), vehicle: saline with Tween-80 90 % of control | dose: 125.0 mg/kg/injection, schedule: Q04DX002 (ip), vehicle: saline with Tween-80 93 % of control

Cc1nc(/N=N/c2nc(C)c(C)[nH]2)[nH]c1C
inactive: [4] 95 % of control | [1] 88 % of control | [5] 104 % of control | [2] 93 % of control | [6] 92 % of control | [3] 93 % of control

CCCC(NCc1ccccc1)C(=O)O (stereo not given)
inactive: dose: 100.0 mg/kg/injection, schedule: Q01DX009 (ip), vehicle: acetone 90 % of control | dose: 200.0 mg/kg/injection, schedule: Q01DX009 (ip), vehicle: acetone 90 % of control | dose: 400.0 mg/kg/injection, schedule: Q01DX009 (ip), vehicle: acetone 90 % of control

CC1CCN(S(=O)(=O)c2ccc(Cl)cc2)CC1
inactive: [4] 102 % of control | [5] 97 % of control | [6] 97 % of control

CCCCOP(=O)(Cc1ccc(Cl)c(Cl)c1)OCCCC
inactive: dose: 100.0 mg/kg/injection, schedule: Q04DX002 (sc), vehicle: olive oil, sesame oil, peanut oil 98 % of control | dose: 200.0 mg/kg/injection, schedule: Q04DX002 (sc), vehicle: olive oil, sesame oil, peanut oil 102 % of control | dose: 400.0 mg/kg/injection, schedule: Q04DX002 (sc), vehicle: olive oil, sesame oil, peanut oil 98 % of control

N/N=C1\CC(=O)NC(=O)N1
inactive: [7] 90 % of control | [8] 96 % of control

NC(CSS(=O)(=O)O)=NC1CC2CCC1C2 (stereo not given)
inactive: dose: 6.25 mg/kg/injection, schedule: Q01DX001 (ip), vehicle: saline 97 % of control | dose: 6.25 mg/kg/injection, schedule: Q01DX009 (ip), vehicle: Klucel (hydroxypropylcellulose) (HPC) 98 % of control | dose: 6.25 mg/kg/injection, schedule: Q01DX009 (ip), vehicle: saline 95 % of control and 103 % of control | dose: 6.25 mg/kg/injection, schedule: Q04DX002 (ip), vehicle: saline 112 % of control and 117 % of control | dose: 12.5 mg/kg/injection, schedule: Q01DX001 (ip), vehicle: saline 95 % of control | dose: 12.5 mg/kg/injection, schedule: Q01DX009 (ip), vehicle: Klucel (hydroxypropylcellulose) (HPC) 95 % of control | dose: 12.5 mg/kg/injection, schedule: Q01DX009 (ip), vehicle: saline 100 % of control and 91 % of control | dose: 12.5 mg/kg/injection, schedule: Q04DX002 (ip), vehicle: Klucel (hydroxypropylcellulose) (HPC) 100 % of control | dose: 12.5 mg/kg/injection, schedule: Q04DX002 (ip), vehicle: saline 101 % of control and 87 % of control | dose: 25.0 mg/kg/injection, schedule: Q01DX001 (ip), vehicle: saline with Tween-80 112 % of control | dose: 25.0 mg/kg/injection, schedule: Q01DX001 (ip), vehicle: saline 92 % of control | dose: 25.0 mg/kg/injection, schedule: Q01DX009 (ip), vehicle: Klucel (hydroxypropylcellulose) (HPC) 104 % of control | dose: 25.0 mg/kg/injection, schedule: Q01DX009 (ip), vehicle: saline 94 % of control and 88 % of control | dose: 25.0 mg/kg/injection, schedule: Q04DX002 (ip), vehicle: Klucel (hydroxypropylcellulose) (HPC) 92 % of control | dose: 50.0 mg/kg/injection, schedule: Q04DX002 (ip), vehicle: saline 117 % of control

CN(C)C(=S)Sc1nc2ccccc2s1
inactive: [1] 101 % of control | [2] 104 % of control | [3] 101 % of control

CC(=O)NCSCC(N)C(=O)O (stereo not given)
inactive: [9] 100 % of control | [10] 108 % of control | dose: 200.0 mg/kg/injection, schedule: Q01DX009 (ip), vehicle: saline 95 % of control | [11] 92 % of control | dose: 400.0 mg/kg/injection, schedule: Q01DX009 (ip), vehicle: saline 92 % of control | dose: 400.0 mg/kg/injection, schedule: Q04DX003 (ip), vehicle: saline 94 % of control

Cc1cc([N+](=O)[O-])c(Cl)cc1N
inactive: dose: 100.0 mg/kg/injection, schedule: Q04DX003 (ip), vehicle: gum acacia 93 % of control | dose: 200.0 mg/kg/injection, schedule: Q04DX003 (ip), vehicle: gum acacia 95 % of control | dose: 400.0 mg/kg/injection, schedule: Q04DX003 (ip), vehicle: gum acacia 95 % of control

Cc1ccc(NC(=O)Oc2cc(C)c(Cl)c(C)c2)cc1
inactive: [4] 94 % of control | [5] 97 % of control | [6] 96 % of control

C=CN1C(=O)N(C=C)C(C)(CC(C)C)C1=O (stereo not given)
inactive: dose: 50.0 mg/kg/injection, schedule: Q01DX009 (ip), vehicle: saline with Tween-80 104 % of control | dose: 100.0 mg/kg/injection, schedule: Q01DX009 (ip), vehicle: saline with Tween-80 103 % of control | dose: 100.0 mg/kg/injection, schedule: Q04DX003 (ip), vehicle: saline with Tween-80 92 % of control | dose: 200.0 mg/kg/injection, schedule: Q01DX009 (ip), vehicle: saline with Tween-80 103 % of control | dose: 200.0 mg/kg/injection, schedule: Q04DX003 (ip), vehicle: saline with Tween-80 92 % of control

c1ccc(-c2cccc(-c3ccccc3)c2)cc1
inactive: [1] 93 % of control | [2] 108 % of control | [3] 90 % of control

Cc1c(Cl)cccc1N=Cc1ccccc1O
inactive: dose: 50.0 mg/kg/injection, schedule: Q01DX009 (ip), vehicle: Klucel (hydroxypropylcellulose) (HPC) 96 % of control | [4] 108 % of control | [1] 109 % of control | [5] 110 % of control | [2] 107 % of control | [3] 98 % of control

CN(C)C
inactive: [12] 101 % of control | dose: 100.0 mg/kg/injection, schedule: Q04DX002 (ip), vehicle: saline 105 % of control | [10] 98 % of control | dose: 200.0 mg/kg/injection, schedule: Q04DX002 (ip), vehicle: saline 97 % of control | [11] 94 % of control

Cc1ccc(C(=O)/C=C2/SS/C(=C/C(=O)c3ccc(C)cc3)S2)cc1
inactive: dose: 50.0 mg/kg/injection, schedule: Q04DX003 (ip), vehicle: Klucel (hydroxypropylcellulose) (HPC) 100 % of control | dose: 100.0 mg/kg/injection, schedule: Q01DX001 (ip), vehicle: Klucel (hydroxypropylcellulose) (HPC) 92 % of control | [1] 97 % of control | dose: 200.0 mg/kg/injection, schedule: Q01DX001 (ip), vehicle: Klucel (hydroxypropylcellulose) (HPC) 95 % of control | [2] 106 % of control | dose: 400.0 mg/kg/injection, schedule: Q01DX001 (ip), vehicle: Klucel (hydroxypropylcellulose) (HPC) 98 % of control | [3] 110 % of control

CCCCCCCCC/C(C)=N\N=C(N)N
inactive: dose: 8.0 mg/kg/injection, schedule: Q01DX Z (oral), vehicle: methylcellulose (MC) 91 % of control | dose: 15.0 mg/kg/injection, schedule: Q01DX Z (ip), vehicle: methylcellulose (MC) 90 % of control | dose: 15.0 mg/kg/injection, schedule: Q01DX Z (oral), vehicle: methylcellulose (MC) 87 % of control | dose: 30.0 mg/kg/injection, schedule: Q01DX Z (oral), vehicle: methylcellulose (MC) 96 % of control | dose: 60.0 mg/kg/injection, schedule: Q01DX Z (oral), vehicle: methylcellulose (MC) 96 % of control | dose: 120.0 mg/kg/injection, schedule: Q01DX Z (oral), vehicle: methylcellulose (MC) 101 % of control

Cc1ccc(C)c(CCl)c1
inactive: [7] 101 % of control | [8] 95 % of control

CC(=O)Oc1cccc(N(C)C)c1
inactive: [13] 97 % of control | [14] 100 % of control | dose: 100.0 mg/kg/injection, schedule: Q01DX001 (ip), vehicle: acetone 98 % of control | [10] 91 % of control

O=[N+]([O-])c1ccc(N/N=C2/C(=C/c3cccc4ccccc34)CCc3ccccc32)c([N+](=O)[O-])c1
inactive: [4] 91 % of control | [5] 89 % of control | [6] 91 % of control

CNCC(C)CNC
inactive: [13] 94 % of control | [12] 103 % of control | [14] 93 % of control | [9] 103 % of control | [10] 95 % of control and 97 % of control
